The values below come from patent US20130224151A1, “Use of FAAH Inhibitors for Treating Abdominal, Visceral and Pelvic Pain” (UNITED STATES OF AMERICA, priority 2010, published 2013).

Test [1] concerns Male Sprague Dawley (SD) rats. As to the kind of experiment: Cortagine-induced visceral hypersensitivity to colorectal distension. The format is in vivo, rat. An excerpt:
Male Sprague Dawley (SD) rats (250-275 g, Harlan Labs, Indianapolis, Ind.) were kept under standard conditions of humidity and temperature and a 12-hour light/dark cycle (lights on 6.00 a.m.). Animals were group housed and had access to food ad libitum. Prior to the start of studies, animals were acclimatized to handling and administration of treatments (oral syringe feeding and subcutaneous injection). At the end of the experiments, animals were sacrificed by CO2 gas inhalation followed by thoracotomy or isoflurane anesthesia followed by decapitation with appropriate approved animal protocols.
On the day of the experiments, rats were injected intraperitoneally (IP) with cortagine (10 μg/kg, 0.8 ml/kg in DMSO/cremophor/isotonic saline (1:1:8 v:v:v). Cortagine, a selective corticotropin releasing factor receptor 1 (CRF1) agonist, prepared as described previously (Rivier et al. J. Med. Chem. 2007: 50:1668-1674), was stored in a powder form at −80° C. and prepared in sterile water (12.5 μg/ml) immediately before use. This dose had previously been established to show a significant increase in defecation, induction of diarrhea and increase in colonic motility, permeability and visceral pain in rats. (Larauche et al. Am. J. Physiol. Gastrointest. Liver Physiol. 2009: 297:G215-G227)
FAAH inhibitor compounds URB597 [3′-(aminocarbonyl)biphenyl-3-yl cyclohexyl carbamate], compound A and compound B were formulated as suspensions in DMSO/cremophor/isotonic saline (1:1:8 v:v:v). The concentration of the respective dosing FAAH inhibitor compound suspensions were 6 mg/ml for 30 mg/kg dose of compound A or compound B; 2 mg/ml for the 10 mg/kg dose of compound B; and 1.5 mg/ml for the 3 mg/kg dose of URB597. Compound A, compound B or vehicle treatment was administered to rats by per os (PO) route at dose-volume of 5 ml/kg. URB597 treatment was administered to rats by subcutaneous (SC) route at dose volume of 2 ml/kg. The vehicle for the PO route was DMSO/cremophor/isotonic saline (1:1:8 v:v:v). Vehicle (PO), URB597 (SC), compound A and compound B (PO) were administered to non-fasted rats, restrained by hand. The regimen of administration of URB597, compound A and compound B involved one delivery (PO or SC) performed 120 min before IP injection of cortagine.
Visceral pain was assessed using a non-invasive pressure transducer system referred to as “sensor balloon” as previously described (Larauche et al. Am. J. Physiol. Gastrointest. Liver Physiol. 2009: 297:G215-G227; Ness et al. Brain Res. 1988: 450:153-169). Briefly, in adult non-fasted SD rats, a 4-5 cm “sensor balloon” lubricated with surgical lubricant (Surgilube, Fougera, Melville) was inserted intra-anally under brief isoflurane anesthesia. The “sensor balloon” was positioned such that its distal end was 1 cm proximal to the anal verge and secured in place by tapping the balloon catheter to the tail. Rats were placed individually in Boolman's cage and allowed to recover from anesthesia and habituation. The colorectal procedure was performed using the Distender Series Ilir dual barostat (G&J Electronics Inc, Toronto, Ontario). The CRD protocol consisted of 2 CRD at 60 mmHg to unfold the balloon followed by 2 sets of CRD at 10, 20, 40 and 60 mmHg, 20 s duration, 4-min inter-stimulus interval. The intra-luminal colonic pressure (ICP) was recorded for 20 s before, during and after termination of CRD. […]

For the next test, the system named is Female Wistar rats. The test is described as follows: Basal sensitivity to colorectal distension model. Type of test: in vivo, rat. The settings on record: 3 mg/kg or 10 mg/kg subcutaneously; CRD measured 3 hrs 15 minutes later.
Setting [2] is: 3 mg/kg SC 2 h before cortagine.
The mark [3] stands for this setting: 3 mg/kg SC 2 h before cortagine, n=11.
[4] abbreviates: 3 mg/kg SC 2 h before cortagine, normalized to baseline VMR at 60 mmHg.

SMILES strings stand for the structures. “Also recorded” adds a separate entry of the source.

Turning to `NC(=O)c1cccc(-c2cccc(OC(=O)NC3CCCCC3)c2)c1` [URB597, 3′-(aminocarbonyl) biphenyl-3-yl cyclohexyl carbamate, reference compound], in test [1] (setting [2]), the “% hypersensitive rats at 40 mmHg” value is given as 55%; the “rats with increased VMR over baseline between 0 and 50% at 60 mmHg” value stood at 18%; the “rats with increased VMR over baseline between 51 and 100% at 60 mmHg” value is 9%; the “rats with increased VMR over baseline over 101% at 60 mmHg” value was determined as 9%. For the same molecule, in test [1] (3 mg/kg SC 2 h before cortagine 10 μg/kg IP, 40 and 60 mmHg), the “effect on cortagine-induced visceral hypersensitivity to CRD” value was “abolished the visceral hypersensitivity; also recorded: prevented the visceral hypersensitivity”. Moreover, in test [1] (setting [3]), the “rats presenting a decrease in VMR compared to baseline at 60 mmHg” value was 64% and the “rats presenting an increased VMR over baseline (% hypersensitive rats) at 60 mmHg” value was determined as 36%. In test [1] (setting [4]), the “VMR to CRD at 40 mmHg” value stood at 81.89±16.38% and the “VMR to CRD at 60 mmHg” value amounted to 97.62±20.02%. For the same molecule, in test [1] (second trial, URB597 3 mg/kg SC 2 h before cortagine IP, n=7, p<0.001), the “VMR versus vehicle/cortagine rats at 60 mmHg CRD” value is “significant differences”. In test [1] (summary statement referring to Example 3), the “antihyperalgesic effects in the cortagine model of visceral pain” value was “did exhibit antihyperalgesic effects”. Also, the “basal sensitivity to colorectal distension (number of abdominal contractions)” value in the test with Female Wistar rats was “does not alter basal sensitivity”.
